compound: O=C(Nc1cc(C(F)(F)F)cc(C(F)(F)F)c1)c1cc(Cl)ccc1O [IMD-0354] + CC(=O)Nc1cccc(-n2c(=O)n(C3CC3)c(=O)c3c(Nc4ccc(I)cc4F)n(C)c(=O)c(C)c32)c1 [Trametinib] (partner 0.02 µM); assay: relative viability (nuclei count vs DMSO), 5 days (fraction); higher = more cells survive; details: first compound 0.04 µM
Summary of the method: (§1)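 A single step with final 0.05% Triton X-100, 1% formaldehyde and 1 ug/ml Hoechst fixed the cells and stained nuclei 5 days after treatment. Lung cancer cell lines in 1536-well plates had been treated by pin tool the day after seeding with one drug alone or a fixed anchor-drug dose plus five library-drug doses (not always all listed) in √10 steps, and nuclei were counted on 4× images. Relative viability is the ratio of nuclei in treated wells to nuclei in vehicle wells, taken as the median of duplicate plates.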

Cell Line	relative viability
HCC-827	0.54
LXF-289	0.721
NCI-H23	0.456
NCI-H647	0.432
CAL-12T	0.333
NCI-H1651	0.803
EPLC-272H	0.295
NCI-H2228	0.472
NCI-H1792	0.496
NCI-H1355	0.446
NCI-H3122	0.215
NCI-H1437	0.538
NCI-H1755	0.858
NCI-H2023	0.473
HCC-15	0.387
NCI-H1944	0.399
PC-14	0.945
EKVX	0.399
LC-2-ad	0.968
NCI-H1975	0.4
RERF-LC-KJ	1.02
SK-MES-1	0.658
NCI-H650	0.987
PC-3 [JPC-3]	0.825

same assay, conditions: first compound 0.1265 µM

Cell Line	relative viability
201T	0.74
NCI-H1915	0.309
HCC-827	0.524
LXF-289	0.62
NCI-H23	0.344
NCI-H647	0.616
CAL-12T	0.308
NCI-H1651	0.729
EPLC-272H	0.271
NCI-H2228	0.454
NCI-H1792	0.564
NCI-H1355	0.398
NCI-H3122	0.223
NCI-H1437	0.486
NCI-H1755	0.796
NCI-H2023	0.504
HCC-15	0.35
NCI-H1944	0.391
PC-14	0.826
EKVX	0.3
LC-2-ad	0.877
NCI-H1975	0.379
RERF-LC-KJ	0.931
SK-MES-1	0.612
NCI-H650	1.07
PC-3 [JPC-3]	0.676

same assay, conditions: first compound 0.4 µM

Cell Line	relative viability
201T	0.611
NCI-H1915	0.324
HCC-827	0.469
LXF-289	0.643
NCI-H23	0.28
NCI-H647	0.175
CAL-12T	0.403
NCI-H1651	0.729
EPLC-272H	0.317
NCI-H2228	0.43
NCI-H1792	0.221
NCI-H1355	0.402
NCI-H3122	0.178
NCI-H1437	0.325
NCI-H1755	0.694
NCI-H2023	0.366
HCC-15	0.335
NCI-H1944	0.388
PC-14	0.301
LC-2-ad	0.54
NCI-H1975	0.271
RERF-LC-KJ	0.663
SK-MES-1	0.49
NCI-H650	1.05
PC-3 [JPC-3]	0.65

same assay, conditions: first compound 1.265 µM

Cell Line	relative viability
201T	0.727
NCI-H1915	0.249
HCC-827	0.393
LXF-289	0.5
NCI-H23	0.144
NCI-H647	0.107
CAL-12T	0.191
NCI-H1651	0.877
EPLC-272H	0.268
NCI-H2228	0.171
NCI-H1792	0.292
NCI-H1355	0.331
NCI-H3122	0.252
NCI-H1437	0.194
NCI-H1755	0.665
NCI-H2023	0.0709
HCC-15	0.269
NCI-H1944	0.39
PC-14	0.359
EKVX	0.339
LC-2-ad	0.348
NCI-H1975	0.159
RERF-LC-KJ	0.557
SK-MES-1	0.401
NCI-H650	0.681
PC-3 [JPC-3]	0.399

same assay, conditions: first compound 4 µM

Cell Line	relative viability
201T	0.319
NCI-H1915	0.12
HCC-827	0.197
LXF-289	0.207
NCI-H23	0.162
NCI-H647	0.0901
CAL-12T	0.211
NCI-H1651	0.238
EPLC-272H	0.201
NCI-H2228	0.232
NCI-H1792	0.135
NCI-H1355	0.244
NCI-H3122	0.147
NCI-H1437	0.191
NCI-H1755	0.228
NCI-H2023	0.115
HCC-15	0.146
NCI-H1944	0.167
PC-14	0.109
EKVX	0.175
LC-2-ad	0.189
NCI-H1975	0.138
RERF-LC-KJ	0.174
SK-MES-1	0.203
NCI-H650	0.232
PC-3 [JPC-3]	0.267

compound: O=C(Nc1cc(C(F)(F)F)cc(C(F)(F)F)c1)c1cc(Cl)ccc1O [IMD-0354] + C[C@]1(O)C[C@@H](c2nc(-c3ccc4ccc(-c5ccccc5)nc4c3)c3c(N)nccn32)C1 [Linsitinib] (partner 1 µM); assay: as above; details: first compound 0.04 µM
Summary of the method: as §1

Cell Line	relative viability
201T	1.13
NCI-H1915	0.968
HCC-827	0.898
LXF-289	1.04
NCI-H23	0.643
NCI-H647	1.36
CAL-12T	0.771
NCI-H1651	1.03
EPLC-272H	1.3
NCI-H2228	0.563
NCI-H1792	0.627
NCI-H1355	1.04
NCI-H3122	1.06
NCI-H1437	1.2
NCI-H1755	0.998
NCI-H2023	0.81
HCC-15	0.801
NCI-H1944	1.08
PC-14	1.01
EKVX	1.1
LC-2-ad	1.02
NCI-H1975	1.15
RERF-LC-KJ	0.948
SK-MES-1	1.05
NCI-H650	1.01
PC-3 [JPC-3]	0.975

same assay, conditions: first compound 0.1265 µM

Cell Line	relative viability
201T	1.01
NCI-H1915	1.12
HCC-827	0.947
LXF-289	0.932
NCI-H23	0.646
NCI-H647	1.1
CAL-12T	0.754
NCI-H1651	0.901
EPLC-272H	1.09
NCI-H2228	0.795
NCI-H1792	0.424
NCI-H1355	0.708
NCI-H3122	1.12
NCI-H1437	1.01
NCI-H1755	1.02
NCI-H2023	0.569
HCC-15	0.812
NCI-H1944	1.12
PC-14	0.841
EKVX	0.961
LC-2-ad	0.844
NCI-H1975	0.938
RERF-LC-KJ	0.944
SK-MES-1	1.08
NCI-H650	0.911
PC-3 [JPC-3]	0.945

same assay, conditions: first compound 0.4 µM

Cell Line	relative viability
201T	1.02
NCI-H1915	0.944
HCC-827	0.82
LXF-289	0.768
NCI-H23	0.425
NCI-H647	0.515
CAL-12T	0.895
NCI-H1651	0.429
EPLC-272H	0.626
NCI-H2228	0.544
NCI-H1792	0.906
NCI-H1355	0.757
NCI-H3122	0.742
NCI-H1437	0.515
NCI-H1755	0.665
NCI-H2023	0.558
HCC-15	0.489
PC-14	0.604
LC-2-ad	0.369
NCI-H1975	0.517
RERF-LC-KJ	0.66
SK-MES-1	0.762
NCI-H650	0.505
PC-3 [JPC-3]	0.826

same assay, conditions: first compound 1.265 µM

Cell Line	relative viability
201T	1.06
NCI-H1915	0.866
HCC-827	0.606
LXF-289	0.459
NCI-H23	0.318
NCI-H647	0.276
CAL-12T	0.152
NCI-H1651	0.0622
EPLC-272H	0.945
NCI-H2228	0.167
NCI-H1792	0.471
NCI-H1355	0.795
NCI-H3122	0.573
NCI-H1437	0.114
NCI-H1755	0.666
NCI-H2023	0.197
HCC-15	0.376
NCI-H1944	1.24
PC-14	0.403
EKVX	0.743
LC-2-ad	0.108
NCI-H1975	0.178
RERF-LC-KJ	0.298
SK-MES-1	0.719
NCI-H650	0.249
PC-3 [JPC-3]	0.734

same assay, conditions: first compound 4 µM

Cell Line	relative viability
201T	0.385
NCI-H1915	0.255
HCC-827	0.282
LXF-289	0.108
NCI-H23	0.19
NCI-H647	0.158
CAL-12T	0.164
NCI-H1651	0.0566
EPLC-272H	0.31
NCI-H2228	0.409
NCI-H1792	0.293
NCI-H1355	0.203
NCI-H3122	0.15
NCI-H1437	0.249
NCI-H1755	0.22
NCI-H2023	0.121
HCC-15	0.141
NCI-H1944	0.111
PC-14	0.175
EKVX	0.232
LC-2-ad	0.123
NCI-H1975	0.207
RERF-LC-KJ	0.208
SK-MES-1	0.221
NCI-H650	0.223
PC-3 [JPC-3]	0.251
